# Experimental data taken from patent publication US20250248957A1, “CELL DIFFERENTIATION” (JOHN HEMMING TRADING LTD, priority 2022, published 2025).
# How the values were obtained:
# Format in all cases: in vivo, human
# precancerous spot = test: Appearance of a precancerous spot on the skin; details: about 3 g citrate daily for about 3 months; FIG. 7
# [1] = Blood glucose over 24 hour periods by continuous glucose monitor (CGM); details: 2-40 g citrate daily, 10 months; two non-consecutive days; FIGS. 5(d),(e)
# Description: (§1) Citrate was administered to the subject with a total daily citrate dose of between 2 and 40 g for a period of 10 months. Blood glucose levels were measured over separate 24 hour periods using a continuous glucose monitor (CGM) purchased from Dexcom.
# [2] = Facial skin quality (number of blemishes); details: 2-40 g citrate daily for 6 weeks; before: 25; FIG. 6
# Description: Administration of citrate was also found to improve facial skin quality following administration of between 2 and 40 g of citrate daily for a period of 6 weeks.
# [3] = Kidney function markers (Cystatin C, creatinine)
# Description: The subject's creatinine levels reached as low as […].
# [4] = Concentration of key biomarkers in the blood (HbA1c, folate, glucose)
# Description: as §1
# The Inventor also measured haemoglobin A1C (HbA1c) which can be used as a diagnostic marker for diabetes. An HbA1c concentration of >6.4% is indicative of diabetes, and a concentration of 5.7% to 6.4% is indicative of prediabetes.
# hair follicle stem cells = test: Hair growth on the scalp of a subject after citrate administration
# Description: Citrate was administered to a subject in the morning as magnesium and potassium citrate and at lunch time as 10 ml of lemon juice to provide a total daily citrate dose of 1.85 g. The antioxidant melatonin was administered at night to provide a total nightly dose of between 10 mg and 470 mg. Citrate was administered daily for four weeks. Citrate was administered to the subject in the morning as magnesium and potassium citrate, at lunch time as 10 ml of lemon juice and as calcium and sodium citrate with a total daily citrate dose of 3.95 g. The antioxidant melatonin was administered at night to provide a total nightly dose of between 10 mg and 470 mg.
# C reactive protein (CRP) = test: CRP level in the blood of the subject
# Description: (§2) Citrate was administered to the subject in the morning as magnesium and potassium citrate, at lunch time as 10 ml of lemon juice and as calcium and sodium citrate with a total daily citrate dose of 3.95 g. The antioxidant melatonin was administered at night to provide a total nightly dose of between 10 mg and 470 mg.
# CRP levels were reduced from 0.5 mg/L to <0.3 mg/L (0.3 mg/L represents the lower limit of detection) following two months of citrate administration. A subsequent measurement of CRP using equipment with higher sensitivity identified a CRP level of below 0.16 mg/L. The Inventor believes that reduced CRP levels result from increased differentiation of senescent stem cells and reduced production of senescent cells via cell dedifferentiation.
# [5] = system: muscle stem cells (satellite cells); test: Muscle mass of the subject after citrate administration; details: total daily citrate dose 3.95 g
# Description: as §2
structure (smiles),measurement,setting,value
O=C(O)CC(O)(CC(=O)O)C(=O)O [citrate],appearance of a precancerous spot on the skin,precancerous spot,reduce the appearance of a precancerous spot
same,blood glucose peaks over 24 hour period (CGM),[1],no significant glucose peaks occurred
same,number of facial blemishes,[2],20
same,"creatinine level, lowest reached","[3]; 2-40 g citrate daily, 10 months",62 mmol/L
same,Cystatin C level,"[3]; following 3 months of citrate, 2-40 g daily, baseline 0.98 mg/L",0.89 mg/L
same,HbA1c level maintained,[4]; 2-40 g citrate daily,less than 5.7%
same,"HbA1c level, lowest reached",[4]; 2-40 g citrate daily,4.18%
same,Glucose concentration in the blood,"[4]; following 6 months of citrate administration, reference range 3.3-5.6",4.53 mmol/L
same,HbA1C in the blood,"[4]; following 6 months of citrate administration, reference range 4-6",4.18%
same,hair growth with added red or infrared radiation,hair follicle stem cells; topical red or infrared radiation 600-900 nm in addition to citrate,further improved hair growth
same,growth of new hairs in areas of the scalp which had suffered hair loss,"hair follicle stem cells; total daily citrate dose 1.85 g for four weeks, melatonin at night, FIG. 1",growth of new hairs was observed
same,growth of thicker and darker hairs,"hair follicle stem cells; total daily citrate dose 3.95 g, melatonin at night, compared to Example 1, FIGS. 2-4",growth of hairs which were thicker and darker
same,CRP level in blood,"C reactive protein (CRP); after two months of citrate, baseline 0.5 mg/L, lower limit of detection 0.3 mg/L",< 0.3 mg/L
same,"CRP level, subsequent measurement with higher sensitivity equipment",C reactive protein (CRP); subsequent measurement,below 0.16 mg/L
same,muscle mass,[5],An increase in muscle mass
